Results from ChEMBL document CHEMBL1201862, “PubChem BioAssay data set” (2004).
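Interpolation was linear, between the two tested concentrations surrounding the appropriate level; five concentrations were tested over 48 hours in 96-well plates. At the GI50, growth is halved.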 Calls of active or inactive are those of the source. Cut-off read from the data, not from the text of the source: active = GI50 up to about 1.1 µM and inactive = higher. Numbered stars: 1 amine (or outer) side, 2 acyl side, 3 side chain; on linkers, the order of the positions; unused ones are H or OH. Square brackets hold non-standard residues; d marks the D form. Peptide text beside a SMILES is read from it. * marks the point of attachment. X30 = CC(=O)N(C)SCC(N[*:1])C(=O)[*:2]; Cbz = O=C(OCc1ccccc1)*; Bn = c1ccc(C*)cc1

What was measured:
Experiment in all cases: DTP human tumour cell line panel, 48 h
[1] = system: CCRF-CEM
[2] = system: IGROV-1
[3] = system: MDA-MB-435
[4] = system: NCI-H226
[5] = system: NCI-H522
[6] = system: OVCAR-3
[7] = system: OVCAR-4
[8] = system: PC-3
[9] = system: SF-268
[10] = system: SF-295
[11] = system: SF-539
[12] = system: SK-MEL-28
[13] = system: SK-OV-3
[14] = system: SNB-19
[15] = system: SNB-75
[16] = system: SR
[17] = system: SW-620
[18] = system: TK-10
[19] = system: K562
[20] = system: RXF 393

Row | Compound | GI50 [1] | GI50 [2] | GI50 [3] | GI50 [4] | GI50 [5] | GI50 [6] | GI50 [7] | GI50 [8] | GI50 [9] | GI50 [10] | GI50 [11] | GI50 [12] | GI50 [13] | GI50 [14] | GI50 [15] | GI50 [16] | GI50 [17] | GI50 [18] | GI50 [19] | GI50 [20]
1 | CC1OC2OC3C(OCC(O)C3O)OC(=O)[C@]34CCC(C)(C)CC3C3=CCC5[C@@]6(C)C[C@H](O)[C@H](OC7OC(CO)C(O)C(O)C7OC7OC(COC(=O)CC(C)(O)CC(=O)OC1C(OC1OC(CO)C(O)C(O)C1O)C2O)C(O)C(O)C7O)[C@@](C)(CO)C6CC[C@@]5(C)[C@]3(C)CC4 (stereo partly specified) | 4.18 µM (inactive) | 3.9 µM (inactive) | 1.91 µM (inactive) | 7.91 µM (inactive) | 2 µM (inactive) | 4.35 µM (inactive) | 5.16 µM (inactive) | 1.95 µM (inactive) | 2.94 µM (inactive) | 1.52 µM (inactive) | 5.46 µM (inactive) | 1.3 µM (inactive) | 12.2 µM (inactive) | 5.81 µM (inactive) | 2.82 µM (inactive) | 3.66 µM (inactive) | 0.359 µM (active) | 1.85 µM (inactive) | – | –
2 | COC(=O)C1=C(OC)[C@H]2C#C/C=C\C#C[C@@H]3Nc4c(cc(O)c5c4C(=O)c4ccccc4C5=O)[C@]24O[C@@]34[C@H]1C | < 0.01 µM (active) | < 0.0127 µM (active) | < 0.01 µM (active) | < 0.01 µM (active) | < 0.01 µM (active) | < 0.0153 µM (active) | 0.0519 µM (active) | < 0.01 µM (active) | < 0.01 µM (active) | < 0.01 µM (active) | < 0.01 µM (active) | < 0.0229 µM (active) | < 0.01 µM (active) | < 0.01 µM (active) | < 0.01 µM (active) | < 0.01 µM (active) | < 0.01 µM (active) | 0.0327 µM (active) | < 0.01 µM (active) | –
3 | O=C1OC(c2ccc(O)c(Cl)c2)(c2ccc(O)c(Cl)c2)c2ccc(Br)c3cccc1c23.O=C1OC(c2ccc(O)c(Cl)c2)(c2ccc(O)c(Cl)c2)c2cccc3c(Br)ccc1c23 | 16.9 µM (inactive) | 18.9 µM (inactive) | 18 µM (inactive) | 17.7 µM (inactive) | – | 5.82 µM (inactive) | 2.67 µM (inactive) | 14.3 µM (inactive) | 14.2 µM (inactive) | 18.3 µM (inactive) | 18.2 µM (inactive) | 20.9 µM (inactive) | 17.2 µM (inactive) | 23.1 µM (inactive) | 22.5 µM (inactive) | 21.2 µM (inactive) | 23.9 µM (inactive) | 17.1 µM (inactive) | 22.7 µM (inactive) | 17.3 µM (inactive)
4 | CC(=O)O[C@@H]1CC[C@@]2(C)C(CC[C@H]3[C@@H]4CC[C@H]([C@H](C)CCc5nc6cc(C)ccc6[nH]5)[C@@]4(C)CC[C@@H]32)C1 (stereo partly specified) | 3.44 µM (inactive) | 4.34 µM (inactive) | > 100 µM (inactive) | 9.38 µM (inactive) | 16.7 µM (inactive) | 20.9 µM (inactive) | 9.77 µM (inactive) | 9.53 µM (inactive) | > 100 µM (inactive) | 12 µM (inactive) | > 100 µM (inactive) | > 100 µM (inactive) | > 100 µM (inactive) | > 100 µM (inactive) | 6.04 µM (inactive) | – | > 100 µM (inactive) | > 100 µM (inactive) | 12.6 µM (inactive) | 6.81 µM (inactive)
5 | CN(CC#N)C(=O)Cc1ccc([N+](=O)[O-])cc1 | > 10 µM (inactive) | > 10 µM (inactive) | > 10 µM (inactive) | > 10 µM (inactive) | – | > 10 µM (inactive) | > 10 µM (inactive) | > 10 µM (inactive) | > 10 µM (inactive) | > 10 µM (inactive) | > 10 µM (inactive) | > 10 µM (inactive) | > 10 µM (inactive) | > 10 µM (inactive) | – | > 10 µM (inactive) | > 10 µM (inactive) | > 10 µM (inactive) | > 10 µM (inactive) | > 10 µM (inactive)
6 | O=C1OC(C2Cc3cc4c(cc3C2=O)CCC4)c2ccccc21 (stereo unspecified) | 25.6 µM (inactive) | 45.5 µM (inactive) | 40.3 µM (inactive) | 20.6 µM (inactive) | 50.4 µM (inactive) | 77.6 µM (inactive) | 78.3 µM (inactive) | 30.3 µM (inactive) | 45.7 µM (inactive) | 74.5 µM (inactive) | 27.9 µM (inactive) | 38.5 µM (inactive) | 21.7 µM (inactive) | 32.1 µM (inactive) | 51.4 µM (inactive) | 35.7 µM (inactive) | 37.3 µM (inactive) | > 100 µM (inactive) | 33.6 µM (inactive) | –
7 | CN(C)c1ccc(C2SCC(=O)N2c2ccc(Oc3ccc(Cl)cc3)c(Cl)c2)cc1 (stereo unspecified) | 18.5 µM (inactive) | 22.6 µM (inactive) | 22.7 µM (inactive) | 30.4 µM (inactive) | 18.3 µM (inactive) | 23.3 µM (inactive) | 22.9 µM (inactive) | 19.9 µM (inactive) | 13.8 µM (inactive) | > 10 µM (inactive) | 18.1 µM (inactive) | 35 µM (inactive) | 29 µM (inactive) | 20.3 µM (inactive) | 17.6 µM (inactive) | 27.5 µM (inactive) | 29.4 µM (inactive) | 48.4 µM (inactive) | – | –
8 | CC1(C)OC[C@@H]([C@H](C=O)OCc2ccccc2)O1 | > 100 µM (inactive) | > 100 µM (inactive) | > 100 µM (inactive) | > 100 µM (inactive) | – | > 100 µM (inactive) | > 100 µM (inactive) | > 100 µM (inactive) | > 100 µM (inactive) | > 100 µM (inactive) | – | > 100 µM (inactive) | > 100 µM (inactive) | > 100 µM (inactive) | > 100 µM (inactive) | > 100 µM (inactive) | > 100 µM (inactive) | > 100 µM (inactive) | > 100 µM (inactive) | –
9 | COc1ccc(C2OC(c3ccncc3)=NN2C)cc1OC (stereo unspecified) | > 100 µM (inactive) | > 100 µM (inactive) | > 100 µM (inactive) | 81.7 µM (inactive) | > 100 µM (inactive) | > 100 µM (inactive) | > 100 µM (inactive) | 53.2 µM (inactive) | > 100 µM (inactive) | > 100 µM (inactive) | > 100 µM (inactive) | > 100 µM (inactive) | > 100 µM (inactive) | > 100 µM (inactive) | – | – | > 100 µM (inactive) | 79.4 µM (inactive) | > 100 µM (inactive) | 93.5 µM (inactive)
10 | CC(=O)N(C)SCC(NC(=O)C(Cc1ccccc1)NC(=O)OCc1ccccc1)C(=O)NC(Cc1ccccc1)C(=O)NC(Cc1c[nH]c2ccccc12)C(=O)NC(CCCCNC(=O)OCc1ccccc1)C(=O)NC(C(=O)NC(CSN(C)C(C)=O)C(=O)NC(C(N)=O)C(C)OCc1ccccc1)C(C)OCc1ccccc1 (stereo unspecified) (Cbz-F[X30]FWK(Cbz)T(Bn)[X30]T(Bn)-NH2; configuration not given here) | > 100 µM (inactive) | > 100 µM (inactive) | > 100 µM (inactive) | > 100 µM (inactive) | – | > 100 µM (inactive) | > 100 µM (inactive) | > 100 µM (inactive) | > 100 µM (inactive) | > 100 µM (inactive) | > 100 µM (inactive) | > 100 µM (inactive) | 1.63 µM (inactive) | > 100 µM (inactive) | > 100 µM (inactive) | > 100 µM (inactive) | > 100 µM (inactive) | > 100 µM (inactive) | > 100 µM (inactive) | > 100 µM (inactive)
11 | CCOC(=O)/C(C#N)=N\Nc1ccc(-n2c(C)nc3ccc(Br)cc3c2=O)cc1 | 33.2 µM (inactive) | 41.9 µM (inactive) | 84.1 µM (inactive) | 79.8 µM (inactive) | – | 52.7 µM (inactive) | – | 63.8 µM (inactive) | 68.5 µM (inactive) | 64.7 µM (inactive) | 87.9 µM (inactive) | 98.2 µM (inactive) | > 100 µM (inactive) | 76.6 µM (inactive) | 55.1 µM (inactive) | 19.7 µM (inactive) | 90.6 µM (inactive) | > 100 µM (inactive) | 35.6 µM (inactive) | –
12 | Cc1c2ccccc2c(C2C3C(=O)N(c4ccc(Br)cc4)C(=O)C3ON2C(C(N)=O)c2ccccc2)c2ccccc12 (stereo unspecified) | 3.18 µM (inactive) | 3.4 µM (inactive) | 3.13 µM (inactive) | 5.3 µM (inactive) | 2.79 µM (inactive) | 3.01 µM (inactive) | 4.94 µM (inactive) | 4.86 µM (inactive) | 9.14 µM (inactive) | 6.59 µM (inactive) | 4.13 µM (inactive) | 17.9 µM (inactive) | 11.7 µM (inactive) | 4.8 µM (inactive) | 5.02 µM (inactive) | – | 3.98 µM (inactive) | – | 4.11 µM (inactive) | 11.7 µM (inactive)
13 | Cc1cc2c(c(C(=O)NCCC(=O)N[C@@H](C)C(=O)OCc3ccccc3)c1)Oc1c(cc(C)cc1C(=O)NCCC(=O)N[C@@H](C)C(=O)OCc1ccccc1)S2 | > 100 µM (inactive) | > 100 µM (inactive) | > 100 µM (inactive) | > 100 µM (inactive) | – | > 100 µM (inactive) | > 100 µM (inactive) | > 100 µM (inactive) | > 100 µM (inactive) | > 100 µM (inactive) | – | – | 80 µM (inactive) | > 100 µM (inactive) | > 100 µM (inactive) | 43.3 µM (inactive) | > 100 µM (inactive) | – | > 100 µM (inactive) | 38.5 µM (inactive)
14 | COC(=O)c1ccc(OCCn2nnc(C(=O)NN)c2C(=O)NN)cc1 | > 100 µM (inactive) | – | > 100 µM (inactive) | – | – | > 100 µM (inactive) | > 100 µM (inactive) | > 100 µM (inactive) | – | > 100 µM (inactive) | – | > 100 µM (inactive) | – | > 100 µM (inactive) | – | > 100 µM (inactive) | – | > 100 µM (inactive) | > 100 µM (inactive) | –
